Data: patent publication EP2951180B1, “2,6,7,8 SUBSTITUTED PURINES AS HDM2 INHIBITORS” (Merck Sharp & Dohme Corp., priority 2013, dated 2014)

target: T1, HDM2 (Homo sapiens, UniProt Q00987); assay: HDM2 FRET assay (inhibition of binding of FITC labeled p53-pocket peptide to HDM2); conditions: Table 9; read-out: FRET IC50
T1 construct: Thioredoxin (N); made in house; host or cells: E. coli strain BL21(DE3)Rosetta
Outline: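 Signal is read as the 520/495 nm emission ratio and converted to percent inhibition; nonlinear sigmoidal regression yields IC50. The assay mixes HDM2 (0.5 nM), FITC-p53 peptide (3 nM) and Tb anti-His antibody (0.25 nM) at 0.1% DMSO.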

T1 sequence (Q00987 17-125): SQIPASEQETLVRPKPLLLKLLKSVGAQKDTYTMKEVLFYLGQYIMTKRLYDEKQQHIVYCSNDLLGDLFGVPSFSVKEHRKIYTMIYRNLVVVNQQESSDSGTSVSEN

| SMILES | IC50 [µM] |
| --- | --- |
| C[C@@H](Nc1nc(C(=O)O)nc2nc(Nc3ccccc3)n(Cc3ccc(C(F)(F)F)cc3)c12)C1CCC1 [Example 9.21, 6-{[(1R)-1-cyclobutylethyl]amino} -8-(phenylamino)-7-[4-(trifluoromethyl)benzyl]-7H-purine-2-carboxylic acid] | 0.00944 |
| C[C@@H](Nc1nc(C(=O)O)nc2nc(N3CCOC(c4ccccc4)C3)n(Cc3ccc(C(F)(F)F)cc3)c12)C1CCC1 (stereo partly drawn) [Example 9.22, 6-{[(1R)-1-cyclobutylethyl]amino}-8-(2-phenylmorpholin-4-yl)-7-[4-(trifluoromethyl)benzyl]-7H-purine-2-carboxylic acid] | 0.0124 |
| C[C@@H](Nc1nc(C(=O)O)nc2nc(N3CCOC(C(F)(F)F)C3)n(Cc3ccc(C(F)(F)F)cc3)c12)C1CCC1 (stereo partly drawn) [Example 9.23, 6-{[(1R)-1-cyclobutylethyl]amino}-7-[4-(trifluoromethyl)benzyl]-8-[2-(trifluoromethyl)morpholin-4-yl]-7H-purine-2-carboxylic acid] | 0.0252 |
| COCC1CN(c2nc3nc(C(=O)O)nc(N[C@H](C)C4CCC4)c3n2Cc2ccc(C(F)(F)F)cc2)CCO1 (stereo partly drawn) [Example 9.24, 6-{[(1R)-1-cyclobutylethyl]amino}-8-[2-(methoxymethyl)morpholin-4-yl]-7-[4-(trifluoromethyl)benzyl]-7H-purine-2-carboxylic acid] | 0.0729 |
| C[C@@H](Nc1nc(C(=O)O)nc2nc(N3CCOC4(CCCC4)C3)n(Cc3ccc(C(F)(F)F)cc3)c12)C1CCC1 [Example 9.25, 6-{[(1R)-1-cyclobutylethyl]amino}-8-(6-oxa-9-azaspiro[4.5]dec-9-yl)-7-[4-(trifluoromethyl)benzyl]-7H-purine-2-carboxylic acid] | 0.0194 |
| C#CCC1CN(c2nc3nc(C(=O)O)nc(N[C@H](C)C4CCC4)c3n2Cc2ccc(C(F)(F)F)cc2)CCO1 (stereo partly drawn) [Example 9.26, 6-{[(1R)-1-cyclobutylethyl]amino}-8-(2-prop-2-yn-1-ylmorpholin-4-yl)-7-[4-(trifluoromethyl)benzyl]-7H-purine-2-carboxylic acid] | 0.0342 |
| C[C@@H](Nc1nc(C(=O)O)nc2nc(N3C[C@H]4C[C@@H]3CO4)n(Cc3ccc(C(F)(F)F)cc3)c12)C1CCC1 [Example 9.27, 6-{[(1R)-1-cyclobutylethyl]amino}-8-[(1R,4R)-2-oxa-5-azabicyclo [2.2.1]hept-5-yl]-7-[4-(trifluoromethyl)benzyl]-7H-purine-2-carboxylic acid] | 0.0237 |
| C[C@@H](Nc1nc(C(=O)O)nc2nc(N3CCOC[C@@H]3C)n(Cc3ccc(Cl)cc3)c12)C1CC1 [Example 9.28, 7-(4-chlorobenzyl)-6-{[(1R)-1-cyclopropylethyl]amino}-8-[(3S)-3-methylmorpholin-4-yl]-7H-purine-2-carboxylic acid] | 0.143 |
| C[C@@H](Nc1ncnc2nc(N[C@@H](CO)c3ccccc3)n(Cc3ccc(C(F)(F)F)cc3)c12)C1CCC1 [Example 9.29] | 4.47 |
| CC(Nc1nc2nc(C(=O)O)nc(N[C@H](C)C3CCC3)c2n1Cc1ccc(C(F)(F)F)cc1)c1cccnc1 (stereo partly drawn) [Example 9.30, 6-{[(1R)-1-cyclobutylethyl]amino}-8-[(1-pyridin-3-ylethyl)amino]-7-[4-(trifluoromethyl)benzyl]-7H-purine-2-carboxylic acid] | 0.00305 |
| CC(Nc1nc2nc(C(=O)O)nc(N[C@H](C)C3CCC3)c2n1Cc1ccc(C(F)(F)F)cc1)c1ccccn1 (stereo partly drawn) [Example 9.31, 6-{[(1R)-1-cyclobutylethyl]amino}-8-[(1-pyridin-2-ylethyl)amino]-7-[4-(trifluoromethyl)benzyl]-7H-purine-2-carboxylic acid] | 0.000526 |
| C[C@@H](Nc1nc(C(=O)O)nc2nc(N3CCOC[C@@H]3C)n(Cc3ccc(C(F)(F)F)cc3)c12)C1CCC1 [Example 9.32, 6-{[(1R)-1-cyclobutylethyl]amino}-8-[(3S)-3-methylmorpholin-4-yl]-7-[4-(trifluoromethyl)benzyl]-7H-purine-2-carboxylic acid] | 0.0152 |
| C[C@@H]1COCCN1c1nc2nc(C(=O)O)nc(N[C@H](C)C3CCC3)c2n1Cc1ccc(C(F)(F)F)cc1 [Example 9.35] | 0.00717 |
| CC[C@H](Nc1nc2nc(C(=O)O)nc(N[C@H](C)C3CCC3)c2n1Cc1ccc(C(F)(F)F)cc1)c1ccccc1 [Example 9.36, 6-{[(1R)-1-cyclobutylethyl]amino}-8-{[(1S)-1-phenylpropyl]amino}-7-[4-(trifluoromethyl)benzyl]-7H-purine-2-carboxylic acid] | 0.000862 |
| C[C@@H](Nc1nc(C(=O)O)nc2nc(N(C)[C@@H](C)c3ccccc3)n(Cc3ccc(C(F)(F)F)cc3)c12)C1CCC1 [Example 9.37, 6-{[(1R)-1-cyclobutylethyl]amino}-8-{methyl[(1S)-1-phenylethyl]amino}-7-[4-(trifluoromethyl)benzyl]-7H-purine-2-carboxylic acid] | 0.0216 |
| C[C@@H](Nc1nc(C(=O)O)nc2nc(NC(=O)c3ccccc3)n(Cc3ccc(C(F)(F)F)cc3)c12)C1CCC1 [Example 9.38] | 0.657 |
| C[C@H](Nc1nc2nc(C(=O)O)nc(N[C@H](C)C3CCC3)c2n1Cc1ccc(C(F)(F)F)cc1)c1cccc(F)c1 [Example 9.39, 6-{[(1R)-1-cyclobutylethyl]amino}-8-{[(1S)-1-(3-fluorophenyl)ethyl]amino}-7-[4-(trifluoromethyl)benzyl]-7H-purine-2-carboxylic acid] | 0.000753 |
| CC1CCCN(c2nc3nc(C(=O)O)nc(N[C@H](C)C4CCC4)c3n2Cc2ccc(C(F)(F)F)cc2)C1 (stereo partly drawn) [Example 9.40, 6-{[(1R)-1-cyclobutylethyl]amino}-8-(3-methylpiperidin-1-yl)-7-[4-(trifluoromethyl)benzyl]-7H-purine-2-carboxylic acid] | 0.0122 |
| C[C@@H](Nc1nc(C(=O)O)nc2nc(N3CCCC(c4ccccc4)C3)n(Cc3ccc(C(F)(F)F)cc3)c12)C1CCC1 (stereo partly drawn) [Example 9.41, 6-{[(1R)-1-cyclobutylethyl]amino}-8-(3-phenylpiperidin-1-yl)-7-[4-(trifluoromethyl)benzyl]-7H-purine-2-carboxylic acid] | 0.0273 |
| CC(C)CC(=O)Nc1nc2nc(C(=O)O)nc(N[C@H](C)C3CCC3)c2n1Cc1ccc(C(F)(F)F)cc1 [Example 9.42, 6-{[(1R)-1-cyclobutylethyl]amino}-8-[(3-methylbutanoyl)amino]-7-[4-(trifluoromethyl)benzyl]-7H-purine-2-carboxylic acid] | 0.324 |
| C[C@@H](Nc1nc(C(=O)O)nc2nc(NC(=O)C3CCCCC3)n(Cc3ccc(C(F)(F)F)cc3)c12)C1CCC1 [Example 9.43, 6-{[(1R)-1-cyclobutylethyl]amino}-8-[(cyclohexylcarbonyl)amino]-7-[4-(trifluoromethyl)benzyl]-7H-purine-2-carboxylic acid] | 0.343 |
| C[C@@H](Nc1nc(C(=O)O)nc2nc(N3CCCCC3c3ccccc3)n(Cc3ccc(C(F)(F)F)cc3)c12)C1CCC1 (stereo partly drawn) [Example 9.44, 6-{[(1R)-1-cyclobutylethyl]amino}-8-(2-phenylpiperidin-1-yl)-7-[4-(trifluoromethyl)benzyl]-7H-purine-2-carboxylic acid] | 0.00367 |
| C[C@@H](Nc1nc(C(=O)O)nc2nc(N3CCCC(C)(C)C3)n(Cc3ccc(C(F)(F)F)cc3)c12)C1CCC1 [Example 9.45, 6-{[(1R)-1-cyclobutylethyl]amino}-8-(3,3-dimethylpiperidin-1-yl)-7-[4-(trifluoromethyl)benzyl]-7H-purine-2-carboxylic acid] | 0.00757 |
| CC(C)C1CCCN(c2nc3nc(C(=O)O)nc(N[C@H](C)C4CCC4)c3n2Cc2ccc(C(F)(F)F)cc2)C1 (stereo partly drawn) [Example 9.46, 6-{[(1R)-1-cyclobutylethyl]amino}-8-[3-(1-methylethyl)piperidin-1-yl]-7-[4-(trifluoromethyl)benzyl]-7H-purine-2-carboxylic acid] | 0.0262 |
| CCCN(c1nc2nc(C(=O)O)nc(N[C@H](C)C3CCC3)c2n1Cc1ccc(C(F)(F)F)cc1)[C@@H](C)c1ccccc1 [Example 9.49, 6-{[(1R)-1-cyclobutylethyl]amino}-8-{[(1S)-1-phenylethyl] (propyl)amino}-7-[4-(trifluoromethyl)benzyl]-7H-purine-2-carboxylic acid] | 0.0228 |
| C[C@@H](Nc1nc(C(=O)O)nc2nc(N3CCOC[C@H]3c3ccccc3)n(Cc3ccc(C(F)(F)F)cc3)c12)C1CCC1 [Example 9.50, 6-{[(1R)-1-cyclobutylethyl]amino}-8-[(3R)-3-phenylmorpholin-4-yl]-7-[4-(trifluoromethyl)benzyl]-7H-purine-2-carboxylic acid] | 0.00176 |
| C[C@@H](Nc1nc(C(=O)O)nc2nc(N3CCOC[C@@H]3c3ccccc3)n(Cc3ccc(C(F)(F)F)cc3)c12)C1CCC1 [Example 9.51, 6-{[(1R)-1-cyclobutylethyl]amino}-8-[(3S)-3-phenylmorpholin-4-yl]-7-[4-(trifluoromethyl)benzyl]-7H-purine-2-carboxylic acid] | 0.12 |
| C[C@@H](Nc1nc(C(=O)O)nc2nc(N3CCCC3c3ccccc3)n(Cc3ccc(C(F)(F)F)cc3)c12)C1CCC1 (stereo partly drawn) [Example 9.52, 6-{[(1R)-1-cyclobutylethyl]amino}-8-(2-phenylpyrrolidin-1-yl)-7-[4-(trifluoromethyl)benzyl]-7H-purine-2-carboxylic acid] | 0.0319 |
| C[C@@H](Nc1nc(C(=O)O)nc2nc(N3CCCCC3c3ccccn3)n(Cc3ccc(C(F)(F)F)cc3)c12)C1CCC1 (stereo partly drawn) [Example 9.53, 6-{[(1R)-1-cyclobutylethyl]amino}-8-(2-pyridin-2-ylpiperidin-1-yl)-7-[4-(trifluoromethyl)benzyl]-7H-purine-2-carboxylic acid] | 0.0264 |
| C[C@@H](Nc1nc(C(=O)O)nc2nc(N3CCC3c3ccccc3)n(Cc3ccc(C(F)(F)F)cc3)c12)C1CCC1 (stereo partly drawn) [Example 9.54, 6-{[(1R)-1-cyclobutylethyl]amino}-8-(2-phenylazetidin-1-yl)-7-[4-(trifluoromethyl)benzyl]-7H-purine-2-carboxylic acid] | 0.0239 |
